The source of these data is patent US12551494B2, “Pharmaceutical composition for preventing or treating dengue fever” (SEOUL NATIONAL UNIVERSITY R&DB FOUNDATION, priority 2021, dated 2026).

Values joined by “and” are separate entries in the source; they are usually repeats but may differ in a detail not shown here. Identical values can stand only once.

Series [1] relates to DENV serotype 2. In words: GOViRA (graphene oxide-based viral RNA analysis) fluorescence antiviral assay / drug library screening in Vero E6 cells. Type of series: cell-based, dengue virus. On the procedure: Vero E6 cells were seeded onto 96-well, black wall, optical bottom plates at a density of 1.5×10^4 cells per well and incubated with DMEM supplemented with 10% FBS and P/S. After overnight incubation, the cells were briefly washed with 1× PBS and infected with DENV. Next, 20 pmol vPNA or β-actin PNA probe was mixed with 1.2 μg DRGON solution for 10 min at RT. The Vero E6 cells were treated with the PNA-DRGON complexes for 5 h. The plates were incubated for up to 72 h, and cell nuclei were counterstained with Hoechst 33342. Fluorescent images were obtained by the IN Cell Analyzer 2000 (GE Healthcare) and DeltaVision Elite (GE Healthcare) imaging system. The quantification of data was processed with the IN Cell Developer software (https://cyvitalifesciences.com).
For the drug library screening experiments, 1.5×10^4 Vero E6 cells in a total volume of 100 μL per well were seeded onto 96-well, black wall, optical bottom plates using DMEM media supplemented with 10% FBS and P/S and incubated overnight. Next, the cells were pretreated with 50 μL of experimental compounds or vehicle in DMEM supplemented with 2% FBS and P/S and incubated 1 h at 37° C. Next, 50 μL of DENV (a final MOI of 0.5) were added to each well, resulting in a 10 μM final concentration for each compound and cells were incubated for 48 h.
Infection was stopped by rinsing each well with 1× PBS, and the infected cells were treated with the PNA-DRGON complexes for 5 h at 37° C. and then briefly washed with 1× PBS. Fluorescent images were obtained by the IN Cell Analyzer 2000, and quantification of the data was processed using the IN Cell Developer software.
To determine its systemic reliability as a high-throughput screening assay, we used Z′-factor as a statistical parameter. […] To further verify whether the GOViRA system is capable of the quantitative analysis of antiviral activity, we utilized the system to investigate the cellular effect caused by a model representative antiviral compound, Ribavirin. […]

The test system of series [2] is DENV serotype 2. In words: Focus-forming assay (FFA) in Vero E6 cells. It counts as cell-based, dengue virus. On the procedure: The virus was titrated by FFA in Vero E6 cells. Ten-fold serial diluted virus in DMEM supplemented with 2% FBS and P/S was added onto confluent Vero E6 cell monolayers attached to 96-well, black wall, optical bottom plates (Corning) and incubated for 1 h. After the incubation, the wells were overlaid with 100 μL of DMEM with 10% FBS, P/S, and methylcellulose and incubated for 2 days. Following the incubation, cell monolayers were fixed with 4% paraformaldehyde and then treated with blocking solution for 1 h. Samples were then treated with the anti-Dengue virus E protein antibody (GeneTex, GTX127277), followed by FITC-labeled goat anti-mouse IgG secondary antibody (Sigma-Aldrich, F0257).
(§1) Standard assays were done to check the antiviral effect and cytotoxicity of ulipristal in vitro. The activity of ulipristal against DENV was evaluated by both FFA and qRT-PCR. For the FFA, Vero E6 cells were infected with DENV in the presence of various concentrations of ulipristal.
(§2) The anti-DENV activity was assessed by immunostaining with antibodies specific to the DENV E protein. […] The cytotoxicity of the compound in the Vero E6 cells was determined by the CCK-8 assay.

Another series deals with Vero E6 cells. In words: Cell viability test (CCK-8 assay). It counts as cell-based. On the procedure: The CCK-8 assay was performed according to the manufacturer's instructions. Vero E6, Huh7, and A549 cells were seeded in 96-well culture plates with 100 μL of complete media. After 24 h of incubation, the cells were treated with nanomaterials or drug in serially diluted concentrations for 48 h. The cells were rinsed with 1× PBS twice, and CCK-8 reagent was treated at a concentration of 10% (v/v) and incubated for 1 h. The optical density at 450 nm was measured by SynergyMx (Biotek) in the absorbance mode.

In series [3] the test system is DENV. In words: qRT-PCR analysis of viral RNA in DENV-infected Vero E6 cells. It counts as cell-based, dengue virus. As to conditions: dose-dependent treatment. The protocol:
(§3) Total RNA was extracted using Trizol (Invitrogen). The cDNA samples were prepared by reverse transcription using SuperScript II Reverse Transcriptase (Invitrogen). The synthesized cDNA samples were subjected to qRT-PCR with primers specific for each gene by using the PowerUp SYBR Green Master Mix (Applied Biosystems) and CFX Connect (Bio-Rad).
as §1, §2
On the technique in general: Real-time PCR tracks product formation cycle by cycle.

Series [4] has as its system DENV. In words: DENV infection in Huh7 cells (qRT-PCR of viral RNA, E protein immunostaining). It counts as cell-based, dengue virus. On the procedure:
as §3
(§4) We further validated the antiviral activity of ulipristal using Huh7 (liver carcinoma cell line) and A549 (lung carcinoma cell line) cell lines as hosts for the DENV infection. Both cell monolayers were analyzed with qRT-PCR to observe the relative DENV RNA level. […] Moreover, the fluorescence signal of the viral E protein from immunostaining also was reduced by the ulipristal treatment (FIG. 11C).

The subject of series [5] is DENV. In words: DENV infection in A549 cells (qRT-PCR of viral RNA, E protein immunostaining). It counts as cell-based, dengue virus. On the procedure:
as §3, §4

In a further series the test system is DENV (KBPV-VR-29). In words: Murine DENV infection model (AG129 mice). Type of series: in vivo. On the procedure: AG129 mice (8-10 weeks old, female) were purchased from Marshall BioResources and housed under pathogen-free conditions. Animal research was approved by the Institutional Animal Care and Use Committee of Seoul National University and was performed according to the guidelines of the recommendations from the Association for Assessment and Accreditation of Laboratory Animal Care.
The murine DENV infection model was as described in previous study (Park, S. J., Kim, J., Kang, S., Cha, H. J., Shin, H., Park, J., Jang, Y. S., Woo, J. S., Won, C., Min, D. H., 2020. Sci Adv 6 (22), eaaz8201.). AG129 mice were exposed with a target dose of […] of the DENV by intraperitoneal injection. One hour after the challenge, the animals were treated with ulipristal. The compound was dissolved in sesame oil at a 10× concentration and further diluted in 1× PBS. Ulipristal was administered to the animals by intraperitoneal injection.
Animals in the vehicle control groups were administered a solution with no drug. The animals were monitored for weight, morbidity (ruffled fur, hunched posture, etc.), and survival daily for a total of 14 days after infection. Mice with a weight <80% of their initial body weight were humanely euthanized. At 3 days p.i., mice were sacrificed from each group. Blood and organ samples were collected. Blood was clarified by centrifugation, and viremia was determined by qRT-PCR. Organs were homogenized, and total RNA was extracted using Trizol. The relative DENV RNA level from each organ was determined by qRT-PCR.
Organ samples were fixed with 4% paraformaldehyde and embedded in paraffin. Paraffin sections were stained with H&E at the pathology core facility in the Center for Medical Innovation, Seoul National University Hospital, Korea.
The DENV strain we used (KBPV-VR-29) has been reported as a mouse-adapted virus strain. […] One hour after the infection, the animals were treated with ulipristal or vehicle over 14 days, and survival was monitored during that period.
Ulipristal was given at a dose of 15 mg/kg every day through intraperitoneal injection.

Another series has as its system PR. In words: qRT-PCR analysis of PR expression in A549 cells. It counts as cell-based. As to conditions: 24 h of incubation. The protocol:
as §3
A time-of-addition experiment was performed to determine which time point of the viral infection stage is affected by the administration of ulipristal. Because ulipristal is widely known as an SPRM compound, we chose a cell line without PR expression to exclude the influence of PR signaling on the time-of-addition experiment. […] After 24 h of incubation, the RNA expression level of each group was analyzed. There was no PR expression in the NT group (FIG. 13). […] Therefore, we examined the mode of action of ulipristal using the A549 cell line.

For series [6], the system named is DENV. In words: Time-of-addition assay in A549 cells. As to conditions: 48 h p.i. It counts as cell-based, dengue virus. On the procedure: A549 cells were seeded onto 24-well plates. After incubation overnight, cells were treated with ulipristal at the various time points and inoculated with DENV. At 48 h p.i., the cells were washed with 1× PBS and processed for qRT-PCR.
A549 cells were treated with ulipristal in three different conditions: treatment before the infection (pre-treatment), treatment along with the infection (co-treatment), and treatment after the infection (post-treatment) (FIG. 14A). […] Furthermore, the degree of inhibitory effect was decreased as the ulipristal administration was delayed (FIG. 14B).

[7] abbreviates: 15 mg/kg every day i.p., day 3 p.i.

With `NC(=O)c1ncn([C@@H]2O[C@H](CO)[C@@H](O)[C@H]2O)n1` [ribavirin, Ribavirin], the “fluorescence signal (GOViRA), dose response” value with DENV serotype 2 [1] (DENV-infected Vero E6 cells) was “serial decrease in the fluorescence signal dose-dependently”. Besides, the EC50 in the series on DENV serotype 2 [1] (Dengue virus, Vero C1008, DENV-infected Vero E6 cells, concentrations 6.25 μM to 400 μM, PNA-DRGON complex after 48 hours, read-out: EC50 value for DENV serotype 2 (GOViRA system)) is 49.2 ± 0.2 µM.

For the molecule `CC(=O)[C@@]1(O)CC[C@H]2[C@@H]3CCC4=CC(=O)CCC4=C3[C@@H](c3ccc(N(C)C)cc3)C[C@@]21C` [ulipristal], in the series on DENV serotype 2 [1] (10 μM, Vero E6 cells, pretreated 1 h, MOI 0.5, 48 h), the “fluorescence signal decrease in drug library screening” value is < 25%. For the same molecule, the EC50 with DENV serotype 2 [2] (DENV serotype 2, read-out: half-effective concentration (EC50), anti-DENV activity by FFA) was 8.3 µM and 8.28 µM. Further, the “number of foci (FFA, DENV E protein immunostaining)” value with DENV serotype 2 [2] (various concentrations) is “number of foci decreased in a dose-dependent manner”. In the series with Vero E6 cells (10 μM), the “cell viability in drug library screening” value is “minimal effects on cell viability”. Also, the “cytotoxicity / cell viability (CCK-8)” value in the series on Vero E6 cells (48 h) is reported as “no impact on cell viability”. Further, the “relative expression level of viral RNA (qRT-PCR)” value with DENV [3] was “active against DENV”. The “fluorescence signal of viral E protein (immunostaining)” value in the series with DENV [4] and in the series with DENV [5] was “reduced” each time. Besides, the “relative DENV RNA level (qRT-PCR)” value with DENV [4] and in the series with DENV [5] was “inhibited the DENV infection in both cell lines dose-dependently” throughout. Further, the “spleen histology (H&E), white-pulp/red-pulp boundary loss” value with DENV (KBPV-VR-29) (15 mg/kg every day i.p.) is recorded as “boundary loss was decreased”. The “viral RNA load in organs (spleen, lung, liver, large intestine)” value with DENV (KBPV-VR-29) (setting [7]) is “significantly decreased”. Further, in the series with DENV (KBPV-VR-29) (setting [7]), the “viral RNA load in the small intestine, difference vs vehicle” value was “not statistically significant”. Further, the “viremia in the blood (qRT-PCR)” value in the series with DENV (KBPV-VR-29) (15 mg/kg every day i.p., day 3 p.i., vs control group) is recorded as “significantly reduced viremia”. In the series with DENV (KBPV-VR-29) (15 mg/kg every day i.p., vs control group), the “liver histology (H&E): nuclear pleomorphism of hepatocytes, dilatation of sinusoids, focal necrosis” value is reported as “significant reduction of such symptoms”. Also, the survival result with DENV (KBPV-VR-29) (15 mg/kg every day, intraperitoneal, 14 days, log-rank test) was “statistically significant survival benefit (P=0.0007)”. For the same molecule, the “relative body weight change and disease symptoms” value with DENV (KBPV-VR-29) (15 mg/kg every day, intraperitoneal, DENV 1×107 FFU i.p., 14 days) was “Compared to the ulipristal-treated group, the control group exhibited a huge weight loss”. Moreover, the “levels of PR expression (qRT-PCR)” value with PR is “did not influence the levels of PR expression”. Also, the “intracellular viral RNA level, antiviral effect” value with DENV [6] (co-treatment (along with the infection)) is “antiviral effect by the administration of the drug was observed”; in the series with DENV [6] (post-treatment (after the virus inoculation)), “less inhibitory effect”; in the series with DENV [6] (pre-treatment (before the infection)), “antiviral effect by the administration of the drug was observed”.
